Assay results taken from the NIST ThermoML archive (doi:10.1016/j.jct.2008.06.011).
Several values for one entry are separate records, joined by “and”; a condition that tells them apart may be missing. Equal entries are not always repeated. Numbers after ± are expanded uncertainties.

Settings: Crystal, Calculated from knudsen effusion weight loss

NNC(=O)c1cccs1 [2-thiophenecarboxylic acid hydrazide]
Settings | vapor or sublimation pressure
339.13 K | 0.000108 ± 5e-06 kPa and 0.000109 ± 5e-06 kPa
341.18 K | 0.000134 ± 7e-06 kPa and 0.000135 ± 7e-06 kPa
343.2 K | 0.000171 ± 9e-06 kPa and 0.000169 ± 8e-06 kPa and 0.000164 ± 8e-06 kPa
345.13 K | 0.000218 ± 1.1e-05 kPa and 0.000213 ± 1.1e-05 kPa and 0.000219 ± 1.1e-05 kPa
347.18 K | 0.000273 ± 1.4e-05 kPa and 0.000274 ± 1.4e-05 kPa and 0.000262 ± 1.3e-05 kPa
349.19 K | 0.00033 ± 1.7e-05 kPa and 0.00034 ± 1.7e-05 kPa and 0.000323 ± 1.6e-05 kPa
351.13 K | 0.000414 ± 2.1e-05 kPa and 0.000423 ± 2.1e-05 kPa and 0.000404 ± 2e-05 kPa
353.18 K | 0.000519 ± 2.6e-05 kPa and 0.00052 ± 2.6e-05 kPa and 0.000497 ± 2.5e-05 kPa
355.19 K | 0.000637 ± 3.2e-05 kPa and 0.000628 ± 3.1e-05 kPa and 0.000622 ± 3.1e-05 kPa
357.12 K | 0.000786 ± 3.9e-05 kPa and 0.000787 ± 3.9e-05 kPa and 0.000763 ± 3.8e-05 kPa
359.15 K | 0.000977 ± 4.9e-05 kPa and 0.000971 ± 4.9e-05 kPa and 0.000942 ± 4.7e-05 kPa
361.18 K | 0.001194 ± 0.00012 kPa and 0.001173 ± 0.00012 kPa and 0.001154 ± 0.00012 kPa

NNC(=O)c1ccco1 [2-furoic acid hydrazide]
Settings | vapor or sublimation pressure
309.15 K | 0.0001487 ± 7.5e-06 kPa and 0.0001459 ± 7.3e-06 kPa and 0.0001436 ± 7.2e-06 kPa
311.15 K | 0.0001928 ± 9.7e-06 kPa and 0.0001919 ± 9.6e-06 kPa and 0.0001872 ± 9.4e-06 kPa
313.14 K | 0.0002436 ± 1.2e-05 kPa and 0.0002335 ± 1.2e-05 kPa and 0.0002348 ± 1.2e-05 kPa
315.14 K | 0.0003144 ± 1.6e-05 kPa and 0.0003082 ± 1.6e-05 kPa and 0.0003114 ± 1.6e-05 kPa
317.13 K | 0.0003943 ± 2e-05 kPa and 0.0003803 ± 1.9e-05 kPa and 0.0003744 ± 1.9e-05 kPa
319.15 K | 0.0005068 ± 2.5e-05 kPa and 0.0004916 ± 2.5e-05 kPa and 0.0004795 ± 2.4e-05 kPa
321.14 K | 0.0006091 ± 3e-05 kPa and 0.0006111 ± 3.1e-05 kPa and 0.0005851 ± 2.9e-05 kPa
323.16 K | 0.0007862 ± 3.9e-05 kPa and 0.0007814 ± 3.9e-05 kPa and 0.0007812 ± 3.9e-05 kPa
325.15 K | 0.0009687 ± 4.8e-05 kPa and 0.0009579 ± 4.8e-05 kPa and 0.0009504 ± 4.8e-05 kPa
